Measurements taken from US8722015B2, “Compositions and methods for treatment of angiogenesis-associated ocular disorders” (The Schepens Eye Research Institute, Inc., priority 2010, dated 2014).

Test system: pathological retinas
Experiment: Staining of pathological and healthy retinas with SH peptide, confocal images
Type: binding, rat
Method: FIG. 7 is a series of confocal images of pathological (row A) and healthy (row B) retinas stained with either SH peptide alone (left hand column), the SH peptide and IB4, which decorates endothelial cells and activated macrophages/microglia (middle column), or SH peptide, IB4 and DAPI (right hand column). Yellow indicates either endothelial cells or activated macrophages/microglia that are also stained with the SH peptide.
The following series of experiments are performed to assess if the unique peptide insert of the SH phage is sufficient for recognition of pathological retinal vessels. A peptide corresponding to the unique insert and the 4 flanking residues on the N and 2 residues on the C termini (GGACSTEALRHCG; SEQ ID NO: 3) is synthesized. To facilitate labeling of the peptide biotin is added on the N-terminus, thereby allowing for detection of the peptide with the fluorescently labeled avidin. The labeled SH peptide, along with the scrambled version is labeled and used to stain flat mounts of RA (experienced room air instead of the OIR protocol) or OIR retinas as was done in FIG. 4. The staining protocol is optimized to identify the suitable concentration of peptide, incubation and wash conditions. If the peptides used in these experiments include all of the necessary sequence information to selectively recognize the pathological retinal vessels, then the peptides work comparably to the phage, as shown in FIG. 4.
Peptides corresponding to those expressed on the surface of the SH phage, e.g., those with the amino acid sequence STEALRH (SEQ ID NO: 2), recognized pathological retinas much more effectively than healthy retinas.

In the case of “STEALRH (Protein from peptide library) [SH peptide]”, the “comparison with the entire SH phage (strength of the signal, absence of background)” value (FIG. 7) is reported as “superior to the entire SH phage”, the “staining of pathological versus healthy retinas” value (OIR versus healthy retinas, FIG. 7) is reported as “stained pathological retinas much more robustly than healthy retinas” and the “recognition of areas without overt pathology” value (pathological retina, in addition to tufts) is reported as “recognized areas without overt pathology”.
